Laboratory results taken from patent US8658353B2, “Liver cell toxicity assay” (Corning Incorporated, priority 2008, dated 2014).

What was measured:
[1] = tested on: primary liver cells; assay: Label-free biosensor DMR assay, 1 mM H2O2 as amplifying marker after compound pretreatment of primary liver cells; settings: then 1 mM H2O2
[2] = tested on: primary liver cells; assay: Label-free biosensor DMR assay, direct exposure of primary liver cells in biosensor sandwich culture; type: cell-based, Human; settings: for DMR signal upon exposure to compound alone: all doses examined
Experimental: Collagen coating of the biosensor microplates was achieved by dispensing 10 μl collagen I (10 μg/ml) into each well, and followed by slow drying over night under controlled vacuum condition. This coating process takes advantage of slow self-assembly of collagen I, and results in an un-even coating consisting of a series of clusters of collagen I, thus providing microscale or nanoscale topology of ECM materials to liver cells to form Epic® 384well biosensor microplate collagen coated.
The RWG biosensor exploits its evanescent wave to measure ligand-induced DMR signals in cells. The evanescent wave extends into the cells and exponentially decays over distance, leading to a characteristic sensing volume of ˜150 nm, implying that any optical response mediated through the receptor activation only represents an average over the portion of the cell that the evanescent wave is sampling. The aggregation of many cellular events downstream the receptor activation determines the kinetics and amplitudes of a ligand-induced DMR.
(§1) The cell responses were recorded continuously.

[3] = tested on: human lung cancer cell line A549; assay: Label-free biosensor DMR assay of A549 cells exposed to 2 mM H2O2 with or without thrombin pretreatment; type: cell-based
Experimental: The kinetic responses were normalized at the time point 2 min before the addition of H2O2.
as §1
The large amplitude of the second N-DMR signal indicates the significant loss of local biomass density within the detection zone of the biosensor, indicative of cell apoptosis which leads to the release of cellular matters from the bottom portion of cells cultured on the biosensor surface. […] The onset time for the second N-DMR event is delayed by at least 15 min.

Compound: CO[C@H]1/C=C/O[C@@]2(C)Oc3c(C)c(O)c4c(O)c(c(/C=N/N5CCN(C)CC5)c(O)c4c3C2=O)NC(=O)/C(C)=C\C=C\[C@H](C)[C@H](O)[C@@H](C)[C@@H](O)[C@@H](C)[C@H](OC(C)=O)[C@@H]1C [rifampin, Rifampin]
- H2O2-induced DMR signal after pretreatment ([1]; rifampin pretreatment ~1-4 hrs): rifampin dose dependent N-DMR
- DMR signal upon exposure to compound alone ([2]; rifampin 625 nM up to 40000 nM): did not result in any significant loss in local biomass density or cause any significant DMR signal

Compound: OO [H2O2, hydrogen peroxide]
- DMR signal of A549 cells ([3]; 2 mM H2O2, no thrombin pretreatment): complicated DMR signal, consisting of four phases
- DMR response (change in local biomass) ([2]; 1 mM H2O2): did not trigger any significant change in local biomass
- DMR response ([2]; 5 mM H2O2): significant negative DMR (N-DMR) signal
- onset time for the N-DMR signal ([2]; after treatment with 5 mM H2O2): around 30 min

Compound: thrombin
- delay of onset time for the second N-DMR event ([3]; thrombin pretreatment 1 to 16 unit/ml, then 2 mM H2O2): at least 15 min
- potency to alter the H2O2 response, based on amplitudes of the rapid P-DMR event ([3]; thrombin pretreatment 1 hr, then 2 mM H2O2, said to correspond to EC50 for endogenous PAR1 activation): ~4 unit/ml
- effect on H2O2-induced A549 apoptosis ([3]; thrombin pretreatment, then 2 mM H2O2): protective of H2O2-induced A549 apoptosis

Compound: C[S+]([O-])c1ccc(-c2nc(-c3ccncc3)c(-c3ccc(F)cc3)[nH]2)cc1 (centres unmarked) [SB203580]
- H2O2-induced DMR signal after pretreatment ([1]; high doses of SB203580, pretreatment ~1-4 hrs): responded to 1 mM H2O2 exposure with a N-DMR
- DMR signal upon exposure to compound alone ([2]; 625 nanomolar up to 10000 nanomolar): did not result in any significant DMR signal
